One may read the IC50 as the point on the concentration scale where inhibition reaches its midpoint. As a reminder, the LC50 is the concentration lethal to half of the exposed cells or organisms.

One data set concerns SK-OV-3. Briefly: Cytotoxicity against human SK-OV-3 cells assessed as reduction in cell viability. It is filed as functional, cell-based.
Data set [1] in a line: Antioxidant activity assessed as DPPH radical scavenging activity. Format: functional. Background: Loss of DPPH colour is used to gauge radical scavenging.
Data set [2] is described as follows: Antioxidant activity assessed as DPPH radical scavenging activity incubated for 30 mins by spectrophotometric analysis. Format: functional.
Data set [3] relates to RAW264.7. As to the kind of experiment: Antiinflammatory activity in mouse RAW264.7 cells assessed as reduction in LPS-induced nitric oxide production. It is filed as functional, cell-based.
Data set [4] in a line: Hemolytic activity in human Neutrophil at 10 uM relative to control. Format: toxicity, cell-based.
A short description of data set [5]: Hemolytic activity in human Neutrophil assessed as hemolysis rate at 10 uM relative to control. Format: toxicity, cell-based. The settings on record: human neutrophils, read-out: Activity.
The next data set has as its system BV-2. Briefly: Antiinflammatory activity in mouse BV2 cells assessed as reduction in LPS-induced nitric oxide production. It is filed as functional, cell-based.
For the next data set, the system named is C6. Briefly: Neuroprotective activity in rat C6 cells assessed as NGF secretion level. Format: functional.
Data set [6] has as its system Trichophyton rubrum. As to the kind of experiment: Antimicrobial activity against Trichophyton rubrum assessed as inhibition zone at 5 ug/disk. Format: functional. Particulars: read-out: IZ.
For data set [7], the system named is Trichophyton rubrum. As to the kind of experiment: Antimicrobial activity against Trichophyton rubrum assessed as inhibition zone at 10 ug/disk. It is filed as functional. Particulars: read-out: IZ.
A further data set deals with NCI-H460. Briefly: Cytotoxicity against human NCI-H460 cells assessed as reduction in cell viability. Format: functional, cell-based.
The next data set deals with M14. As to the kind of experiment: Cytotoxicity against human M14 cells assessed as reduction in cell viability. Format: functional, cell-based.
Data set [8] can be described thus: Toxicity in brine shrimp assessed as lethality. The settings on record: artemia salina.
Data set [9] concerns Rattus norvegicus. As to the kind of experiment: Anxiolytic activity in rat assessed as number of entries in open arm at 5 mg/kg by elevated plus maze test. Format: functional.
Data set [10] concerns Rattus norvegicus. Briefly: Anxiolytic activity in rat assessed as head tips at 5 mg/kg by elevated plus maze test. It is filed as functional.
The subject of data set [11] is Rattus norvegicus. Briefly: Anxiolytic activity in rat assessed as increase in time spent in open arm at 5 mg/kg by elevated plus maze test. Format: functional.
For a further data set, the system named is Staphylococcus aureus. Briefly: Antibacterial activity against Staphylococcus aureus assessed as inhibition of bacterial growth. It is filed as functional, organism-based.
The subject of data set [12] is Staphylococcus epidermidis. As to the kind of experiment: Antibacterial activity against Staphylococcus epidermidis assessed as reduction in bacterial growth. Format: functional, organism-based.
Data set [13] deals with RAW264.7. Briefly: Antiinflammatory activity against mouse RAW264.7 cells assessed as inhibition of LPS-induced COX1 expression. It is filed as functional, cell-based.
Data set [14] concerns RAW264.7. As to the kind of experiment: Antiinflammatory activity against mouse RAW264.7 cells assessed as inhibition of LPS-induced COX2 expression. It is filed as functional, cell-based.
A further data set has as its system Bel-7402. As to the kind of experiment: Cytotoxicity against human Bel-7402 cells assessed as reduction in cell viability. Format: functional, cell-based.
A further data set relates to SGC-7901. Briefly: Cytotoxicity against human SGC-7901 cells assessed as reduction in cell viability. It is filed as functional, cell-based. Particulars: Homo sapiens, SGC-7901; read-out: IC50.
The subject of another data set is HL-60. As to the kind of experiment: Cytotoxicity against human HL-60 cells assessed as reduction in cell viability by MTT assay. Format: functional, cell-based. (In general: Formazan colour is commonly taken as a measure of viable cells.)

Each structure is given as a SMILES string. In brackets after ≈: the same amount, converted by molar mass.

As for `COc1cc(O)c2c(c1)CCc1cc(O)c(-c3c(OC)cc(O)c4c3CCc3c-4ccc(O)c3-c3c(OC)cc(O)c4c3CCc3cc(O)ccc3-4)cc1-2`, the results for the IC50 (with SK-OV-3; in [1]) were 41.5 µg/mL (≈ 57.4 µM) and 4.8 µg/mL (≈ 6.64 µM), respectively.

Turning to `C=Cc1cc(O)cc2ccc3c(C)c(O)ccc3c12`, the IC50 in data set [2] is 1.7 µM; with RAW264.7 [3] (Mus musculus, RAW264.7), 12.7 µM; in the data set with RAW264.7 [3] (raw264.7), 10.5 µM. For the same molecule, the Activity in data set [4] worked out at 5.3. In addition, in data set [5], the hemolysis at 10 µM was 11.3%.

Regarding `COc1cc2c(ccc3cc(OC)c(O)c(OC)c32)cc1O`, in the data set with BV-2, the IC50 was 19.6 µM. Moreover, in the data set on C6, the Activity stood at 162.4%.

Consider `CC(=O)N1CCN(c2ccc(OCC3COC(Cn4ccnc4)(c4ccc(Cl)cc4Cl)O3)cc2)CC1` (stereo not given) [KETOCONAZOLE], for which the zone of inhibition at 5 µg/disc in the data set with Trichophyton rubrum [6] was 15.7 mm.

For `COc1cc2c(c(OC)c1O)-c1c(ccc(O)c1O)CC2`, the zone of inhibition at 10 µg/disc with Trichophyton rubrum [7] amounted to 12.7 mm.

As for `COC1=CC(=O)c2c(ccc3cccc(O)c23)C1=O`, the half-inhibitory concentration (IC50) in the data set on NCI-H460 was 5 µM; with M14 it was 1.5 µM.

For the molecule `O=P1(N(CCCl)CCCl)NCCCO1` (stereo not given) [CYCLOPHOSPHAMIDE ANHYDROUS], the LC50 in data set [8] came to 16.4 µg/mL (≈ 62.8 µM).

For `C=Cc1c(C)c(O)cc2ccc3c(C)c(O)ccc3c12`, the Activity is over 6 with Rattus norvegicus [9] and over 80 in the data set with Rattus norvegicus [10]. Besides, the IC50 in the data set with RAW264.7 [3] (Mus musculus, RAW264.7) worked out at 15.6 µM. Further, the Time in the data set with Rattus norvegicus [11] came to 56.54 s.

As for `COc1cc(O)c2c(c1C)CCc1cc(O)c(C)cc1-2`, the IC50 (in the data set on Staphylococcus aureus; in data set [12]) was 12.5 µg/mL (≈ 46.2 µM) in each case.

Consider `COC1=CC(=O)c2c(ccc3cc(OC)c(O)cc23)C1=O`, for which the IC50 came to 0.08 µM in the data set on RAW264.7 [13] and 0.27 µM in the data set on RAW264.7 [14].

In the case of `COC1=CC(=O)C2=C(CCc3cccc(O)c32)C1=O` [EPHEMERANTHOQUINONE B], the IC50 in the data set with Bel-7402 came out at 1.8 µg/mL (≈ 7.02 µM); in the data set with SGC-7901, 2.9 µg/mL (≈ 11.3 µM); in the data set on HL-60, 3 µM.

The values are drawn from ChEMBL document CHEMBL5244207, “Phenanthrenes: A Promising Group of Plant Secondary Metabolites” (J Nat Prod, 2018).
